Reference: publication PMC11992618, “Development of cyclopeptide inhibitors specifically disrupting FXR–coactivator interaction in the intestine as a novel therapeutic strategy for MASH” (Life Metabolism, 2025)

Legend:
[1] = tested on: intestinal and hepatic FXR signaling; test: In vivo intestinal FXR antagonism experiment (TCA-induced); set-up: species or system mouse; settings: mice, oral 20 mg/kg with TCA 400 mg/kg/day, 3 doses
Method: For the in vivo intestinal FXR antagonism experiment, after a 3-day treatment with an antibiotic cocktail (1 mg/mL neomycin, 1 mg/mL streptomycin, and 1 mg/mL bacitracin) in drinking water, 8- to 10-week-old male C57BL/6 J mice were orally administered with vehicle or TCA (400 mg/kg/day), TCA combined with GUDCA (50 mg/kg), or TCA combined with DC646 (20 mg/kg) once a day. The serum, liver, and intestine were collected 2 h after the third dosing.
The intestine and liver were frozen in liquid nitrogen and stored at −80°C. RNA was extracted, and complementary DNA was synthesized from 1 μg total RNA. RT-qPCR was performed on a Bio-Rad CFX384 Touch detection system (Bio-Rad). The primer sequences for RT-qPCR are shown in Supplementary Table S5. RNA levels were analyzed by 2-^ΔΔCt, normalized to 18S ribosomal RNA and expressed as fold change relative to the control group.

[2] = Tissue distribution (pharmacokinetic study); type: in vivo, mouse; settings: ICR mice, single oral 20 mg/kg
Method: Male ICR mice (6–8 weeks old, 18–22 g, Shanghai Lingchang BioTech Co., Ltd., China) were used in the pharmacokinetic study. The mice were administered with a single dose of cyclopeptide DC646 in 5% DMSO and 95% hydroxypropyl methylcellulose solution (0.5% hydroxypropyl methylcellulose in deionized water in weight ratio) (volume ratio) by oral gavage (20 mg/kg). Before the test, the mice were fasted for 12 h and were fed regularly 2 h after administration. Subsequently, 50 μL of blood was collected from the portal vein at 1, 4, 8, and 24 h in an EDTA-K2 nebulization tube. Samples were centrifuged at 12,000 rpm for 2 min to separate the plasma, which was then stored at −20°C to determine the drug concentration in the blood. After sacrifice, the livers and intestines were collected, washed with ice-cold saline, and stored at −20°C before compound measurement.

hFXR = molecular target: T1, hFXR (Homo sapiens, UniProt Q96RI1); test: Luciferase reporter assay, FXR antagonism in transfected HEK293T cells; type: cell-based; settings: 100 µmol/L, in the presence of GW4064, HEK293T
T1 construct: expressed in transfected cells; host or cells: HEK293T
T1 sequence (Q96RI1 1-472 isoform Q96RI1-2): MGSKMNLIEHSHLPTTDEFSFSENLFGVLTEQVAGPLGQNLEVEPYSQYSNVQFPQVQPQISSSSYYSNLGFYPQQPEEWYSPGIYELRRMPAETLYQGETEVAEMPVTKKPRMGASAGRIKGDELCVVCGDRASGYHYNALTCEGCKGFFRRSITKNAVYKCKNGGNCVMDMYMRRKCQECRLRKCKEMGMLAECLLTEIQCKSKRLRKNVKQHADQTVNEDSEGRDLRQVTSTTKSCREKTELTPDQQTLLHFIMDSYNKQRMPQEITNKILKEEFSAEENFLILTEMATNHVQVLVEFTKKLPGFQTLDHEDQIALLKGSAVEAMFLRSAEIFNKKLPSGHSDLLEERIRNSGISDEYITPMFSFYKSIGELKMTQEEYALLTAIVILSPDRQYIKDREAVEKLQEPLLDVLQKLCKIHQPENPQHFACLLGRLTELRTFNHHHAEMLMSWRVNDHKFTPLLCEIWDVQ
Method: HEK293T cells were used for the luciferase report assays and were cultured in DMEM with 10% FBS. The cells were incubated in DMEM media with 1% FBS for 4–6 h and then exposed to the indicated concentrations of compounds for 24 h.
For the FXR antagonism experiment, HEK293T cells were seeded in 96-well plates and transfected with pCMV-Script-hFXR and pGL4.11-hSHP-luciferase at a density of 3 × 10^4 cells/well, before culturing overnight. The compounds at indicated concentrations were added to the cells and incubated at 37°C for 1 h, before stimulating with 1% DMSO (negative control) and 5 μmol/L GW4064 (positive control) for 24 h. For the FXR agonism experiment, HEK293T cells were seeded in 96-well plates and transfected with pCMV-Script-hFXR and pGL4.11-hSHP-luciferase at a density of 3 × 10^4 cells/well, before culturing overnight. Then compounds at indicated concentrations were added to the cells and incubated at 37°C for 24 h. […]
The luciferase activities and cell viabilities were detected by the FIREFLYGLO Luciferase Assay System and Cell Titer-Blue® Cell Viability Assay according to the manufacturer’s instructions. Firefly luciferase activities and cell viabilities were measured using Spectra Max M5e (Molecular Devices).

PPARα = molecular target: T2, PPARα (Homo sapiens, UniProt Q07869); test: PPARα cell-based reporter assay; settings: 10 μmol/L; inhibition of agonist-induced receptor activation
T2 sequence (Q07869 1-468): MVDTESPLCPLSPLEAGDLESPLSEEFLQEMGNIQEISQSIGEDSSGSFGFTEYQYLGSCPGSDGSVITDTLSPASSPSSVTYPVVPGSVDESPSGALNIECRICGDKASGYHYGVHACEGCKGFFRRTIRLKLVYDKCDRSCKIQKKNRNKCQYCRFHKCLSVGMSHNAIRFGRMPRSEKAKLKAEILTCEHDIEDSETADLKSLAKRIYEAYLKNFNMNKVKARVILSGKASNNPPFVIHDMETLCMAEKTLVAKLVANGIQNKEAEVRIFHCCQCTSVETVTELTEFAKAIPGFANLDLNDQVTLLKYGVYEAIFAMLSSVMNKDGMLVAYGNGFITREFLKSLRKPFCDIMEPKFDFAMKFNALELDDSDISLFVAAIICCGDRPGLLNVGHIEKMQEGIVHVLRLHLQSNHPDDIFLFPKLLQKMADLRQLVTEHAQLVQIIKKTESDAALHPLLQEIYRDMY
Description: Inhibition% means inhibition percentage of agonist-induced receptor activation.

## CC(C)C[C@@H]1NC(=O)[C@@H]2CN(CCO2)c2cccc3c2c(cn3[Si](C(C)C)(C(C)C)C(C)C)C[C@H](NS(=O)(=O)C(F)(F)F)C(=O)OCCCCNC(=O)[C@H](CC(C)C)NC(=O)[C@@H]2CN(CCO2)c2cccc3c2c(cn3[Si](C(C)C)(C(C)C)C(C)C)C[C@H](NS(=O)(=O)C(F)(F)F)C(=O)OCCCCNC1=O [DC646, N,N'-((1^2R,1^4S,16^2R,16^4S,4R,13R,19R,28R)-13,28-diisobutyl-5,12,15,20,27,30-hexaoxo-2^1,17^1-bis(triisopropylsilyl)-2^1H,17^1H-6,21-dioxa-11,14,26,29-tetraaza-1(4,2),16(2,4)-dimorpholina-2,17(4,3)-diindolacyclotriacontaphane-4,19-diyl)bis(1,1,1-trifluoromethanesulfonamide)]
[1]
  Hepatic FXR signaling: not hepatic FXR signaling
  mRNA expression levels of TCA-induced FXR target genes Shp and Fgf15 (intestine): decreased
[2]; 1 h
  Concentration in liver: BQL^$
  Concentration in serum: BQL^&
[2]; 4 h
  Concentration in liver: BQL
  Concentration in serum: BQL
[2]; 8 h
  Concentration in liver: BQL
  Concentration in serum: BQL
[2]; 24 h
  Concentration in intestine: BQL^$
  Concentration in liver: BQL
  Concentration in serum: BQL
[2]; male, mouse, intestine, 1 h, read-out: Concentration in intestine
  tissue level at time at 1 h: 6350 ng/g
[2]; male, mouse, intestine, 4 h, read-out: Concentration in intestine
  tissue level at time at 4 h: 435 ng/g
[2]; male, mouse, intestine, 8 h, read-out: Concentration in intestine
  tissue level at time at 8 h: 72 ng/g
hFXR
  Suppression of FXR activation (relative luciferase activity): more than 70%
PPARα
  inhibition at 10 µM: -1.3%
